In US20240261224A1, “FORMULATION OF A PAN-JAK INHIBITOR” (KINASET THERAPEUTICS, INC., priority 2022, published 2024):

How the values were obtained:
Type in all cases: in vivo
[1] = 13-week inhalation toxicology study, rat model; settings: in vivo, inhaled or intranasal, rat; for AUC(0-t): AUC0-24
Experimental: (§1) Lactose/MgSt-based formulations of Compound I were evaluated during a 13-week inhalation toxicology study using a rat model.
(§2) The NOAEL was assigned to the highest dose study (11.9 mg/kg/day).

[2] = tested on: rat; assay: 13-week inhalation toxicology study, rat model; settings: for AUC0-24: rat, in vivo, inhaled or intranasal
Experimental: as §1, §2

[3] = Margin of safety study versus 13-wk NHP NOAEL
Description: Results from the margin of safety study of lactose/MgSt-based formulations of Compound I are shown below in Table 17.

[4] = 4.0 mg BID vs 13-week NHP study

**Q.** For `Cn1c(=O)n([C@H]2CCCN(C(=O)CC#N)C2)c2nc(-c3cnn4ccccc34)ccc21` [Compound I, (S)-3-(3-(1-methyl-2-oxo-5-(pyrazolo[1,5-a]pyridine-3-yl)-1H-imidazo[4,5-b]pyridine-3(2H)-yl)piperidin-1-yl)-3-oxopropanenitrile], which NOAEL at 13 weeks ([1]; 13-week inhalation, highest dose) is on record?
**A.** 11.9 mg/kg/day

**Q.** What about the AUC(0-t) ([1]; 1.3 mg/kg/day) of the same compound?
**A.** 339 ng·h/mL

**Q.** And the AUC(0-t) ([1]; 4 mg/kg/day)?
**A.** 850 ng·h/mL

**Q.** What about the AUC(0-t) ([1]; 12 mg/kg/day) of the same compound?
**A.** 2060 ng·h/mL

**Q.** What about the AUC0-24 ([2]; 1.3 mg/kg/day) of the same compound?
**A.** 197 ng·h/mL

**Q.** What about the AUC0-24 ([2]; 4 mg/kg/day) of the same compound?
**A.** 738 ng·h/mL

**Q.** And the AUC0-24 ([2]; 12 mg/kg/day)?
**A.** 1950 ng·h/mL

**Q.** What about the MMAD ([2]; target delivered dose 1.3 mg/kg/day (low dose)) of the same compound?
**A.** 1.9 μm

**Q.** What about the MMAD ([2]; target delivered dose 4.0 mg/kg/day (mid dose)) of the same compound?
**A.** 2.0 μm

**Q.** What about the MMAD ([2]; target delivered dose 12.0 mg/kg/day (high dose)) of the same compound?
**A.** 2.1 μm

**Q.** What about the “MoS versus inhalation toxicology study NOAELs, Lung exposure (mg/g lung)” value [3, 4] of the same compound?
**A.** 50

**Q.** What about the “MoS versus inhalation toxicology study NOAELs, Plasma (group mean AUC0-24)” value [3, 4] of the same compound?
**A.** 3.2

**Q.** And the “Group mean AUC0-24 MoS (Phase 1 clinical study versus inhalation tox study NOAELs)” value ([3]; 4.0 mg BID vs 13-wk NHP NOAEL)?
**A.** 3.2

**Q.** What about the “Lung dose of Compound I (mg/g) MoS” value ([3]; 4.0 mg BID vs 13-wk NHP NOAEL, adjusted for respirability assuming 10%, 25% and 100% lung deposition in rat, NHP and human) of the same compound?
**A.** 50
